In patent US9018208B2, “Heterocycles as potassium channel modulators” (Icagen Inc., priority 2007, dated 2015):
Read-outs that look alike come from different tables or passages of the source.

Assays:
[1] = test system: SH-SY5Y M-currents (KCNQ2, KCNQ3 and KCNQ5); assay: SH-SY5Y native cell line FLIPR assay (voltage-sensitive dye DiBAC); format: cell-based, mouse neuroblastoma, rat glioma hybrid cell line; settings: SH-SY5Y native cell line, read-out: SH-SY5Y EC50
In short: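 Response is peak DiBAC fluorescence change, normalised to the maximum from a positive control agent, sampled every 30 s over 25 min. Before compound addition, SH-SY5Y cells differentiated with PGE1 plus isomethylbutylxanthine were dye-loaded for 1 h in EBSS with […] DiBAC.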

[2] = test system: electroshock seizure, Male Wistar rats; assay: In vivo rat assay for anti-convulsant activity (rat MES, electroshock seizure); settings: for Rat MES activity: single dose screening, typically 10 mg/kg, animals protected from hind limb extension; for ED50: Rattus norvegicus, po
Procedure: Male Wistar rats were housed 4 per cage on a regular light/dark cycle (lights on 0600-1800) for one week prior to anti-convulsant testing. The apparatus used to induce electroshock seizure was obtained from Walhquist Instrument Co., Salt Lake City, Utah. The shock level was set at 150 mA and the duration at 0.2 seconds. A drop of 1% proparacaine solution was placed in each eye of a rat, the electrodes were placed over the eyes, and the shock was administered. Latency to hind limb extension was measured to the nearest 0.1 second.
The KCNQ opener was homogenized in either 0.5% carboxymethylcellulose in water or 0.5% methylcellulose in water) and administered orally through a steel 18-gauge rat gavage tube in a volume of 2 mL/kg of body weight. In the single dose screening assay, latency to seizure for the vehicle group and the KCNQ opener group were compared using t-test. Typically a dose of 10 mg/kg of the opener is used. However, openers can be run n a dose-response experiment where doses of 1, 3, 10 and 30 mg/Kg are used.
In the single dose screening assay, latency to seizure for the vehicle and the 10 mg/kg groups were compared using t-test. Latencies to seizure in the dose response studies were submitted to analysis of variance and all dose groups were compared to vehicle using Dunnett's method (JMP© ver 5.1, SAS). In all cases an effect was considered significant if p≦0.05.

[3] = test system: tactile allodynia following L5 nerve ligation, Male Sprague-Dawley rats; assay: In vivo rat assay for neuropathic pain (L5 spinal nerve ligation, Von Frey tactile allodynia); settings: oral, Von Frey 50% paw withdrawal threshold after L5 ligation
Text: A neuropathic pain condition is induced in rats using a nerve injury model similar to the method described by Kim and Chung (Kim, S. H. & Chung, J. M. (1992) Pain 50:355-363). Rats (Male Sprague-Dawley, Charles River, Wilmington, Mass.) weighing 200-300 grams were utilized. Food and water was available ad libitum except during testing) are anesthetized with halothane and the L5 spinal nerve is exposed, carefully isolated, and tightly ligated with 4.0 silk suture distal to the dorsal root ganglia. The wounds are sutured and the animals are allowed to recover in individual cages. To test the effect of a KCNQ opener on tactile allodynia following L5 nerve ligation, Von Frey tactile withdrawal thresholds are determined. Test animals are placed in a box separated by walls with a wire mesh floor allowing access to the plantar surface of the paw. […] Failure to lift the hind paw after 4 seconds is scored as a negative response and the next ascending hair is applied. […]
Baseline measurements of allodynia are performed immediately prior to subject selection and compound administration. […] Additional paw withdrawal thresholds are measured at various time intervals after compound administration. Examples 153 and 19 were evaluated in this assay.

[4] = Metabolic stability in rats after oral administration (mass spectrometry); format: in vivo, rat; settings: result in words
Text: Metabolite 14% of parent for compound 65 and metabolite 35% of parent for compound 366 were observed.

[5] = test system: carrageenan-induced thermal hyperalgesia, Sprague Dawley rats; assay: In vivo rat model for inflammatory pain (carrageenan, thermal hyperalgesia); settings: oral, carrageenan paw, thermal escape latency
Procedure: Compounds with anti-hyperalgesic activity will increase (or lengthen) the escape latency of the inflamed paw.
To induce a local inflammation, 50 μL of a 1% solution of λ-carrageenan in sterile water is injected subcutaneously into the plantar surface of the right hind paw of the rat (Sprague Dawley rats, sample size=8 per treatment group). The KCNQ openers typically at doses ranging from 1-100 mg/kg were homogenized in either 0.5% carboxymethylcellulose in water or 0.5% methylcellulose in water and administered orally through a steel 18-gauge rat gavage tube in a volume of 2 mL/kg of body weight 30 minutes prior to carrageenan injection. After carrageenan injection behavioral testing is conducted at the appropriate time following opener or vehicle administration (generally Tmax, the time of maximum plasma levels of the compound being tested). To assess the thermally evoked paw withdrawal response, a commercially available Hargreaves Box was used (UCSD Department of Anesthesiology, San Diego; La Jolla, Calif., stimulus intensity 5.25 amps). Rats were placed on a thin glass surface in individual chambers made of clear plastic. […] The time to withdrawal response is measured in seconds and assigned as the response latency. […]

Row | Molecule | EC50 ([1]; FLIPR assay (Table 6)) [nM] | Rat MES activity ([2]; oral) | metabolism in rats [4] | ED50 ([2]; rat MES dose-response) [mg/kg] | also measured
1 | CC(C)(C)CC(=O)Nc1nc2ccc(C(F)(F)F)cn2c1CC(C)(C)C [Compound 19, 3,3-dimethyl-N-(3-neopentyl-6-(trifluoromethyl)imidazo[1,2-a]pyridin-2-yl)butanamide] |  | +++ (+++ 7-8 animals protected) |  |  | EC50 ([1]; FLIPR assay, Table 1): < 500 nM; ED50 [3]: 10 mg/kg
2 | CC(C)(C)CC(=O)Nc1nc2ccc(C(F)(F)F)cn2c1C1CC1 [Compound 65, N-(3-cyclopropyl-6-(trifluoromethyl)imidazo[1,2-a]pyridin-2-yl)-3,3-dimethylbutanamide] |  |  | undergo metabolism at the terminal carbon of the t-butyl group |  | EC50 ([1]; FLIPR assay, Table 1): 500 to 3000 nM
3 | CC(C)(C)CC(=O)Nc1nc2ccc(F)cn2c1-c1ccc(OC(F)(F)F)cc1 [Compound 153, N-(6-fluoro-3(4-(trifluoromethoxy)phenyl)imidazo[1,2-a]pyridin-2-yl)-3,3-dimethylbutanamide] |  | +++ (+++ 7-8 animals protected) |  | 0.5 | EC50 ([1]; FLIPR assay, Table 2): < 500 nM; ED50 [3]: 1.9 mg/kg; ED50 [5]: 0.5 to 1 mg/kg
4 | CC(C)(C)CC(=O)Nc1nc2ccc(F)cn2c1-c1cc(C(F)(F)F)ccn1 [Compound 366, N-(6-fluoro-3-(4-(trifluoromethyl)pyridin-2-yl)imidazo[1,2-a]pyridin-2-yl)-3,3-dimethylbutanamide] |  |  | undergo metabolism at the terminal carbon of the t-butyl group |  | EC50 ([1]; FLIPR assay (Table 3)): < 500 nM
5 | CC(C)(CC(=O)Nc1nc2ccc(C(F)(F)F)cn2c1C1CCC1)C(F)(F)F [Compound 431, N-(3-cyclobutyl-6-(trifluoromethyl)imidazo[1,2-a]pyridin-2-yl)-4,4,4-trifluoro-3,3-dimethylbutanamide] | < 500 | +++ (+++ 7-8 animals protected) | little or no metabolism | 5.2 | 
6 | O=C(Nc1nc2ccc(C(F)(F)F)nn2c1C1CC1)c1ccc(F)c(F)c1 [Compound 434, N-(3-cyclopropyl-6-(trifluoromethyl)imidazo[1,2-b]pyridazin-2-yl)-3,4-difluorobenzamide] | 500 to 3000 | ++ (++ 4-6 animals protected) |  |  | 
7 | CC(C)(C(=O)Nc1nc2ccc(C(F)(F)F)nn2c1C1CCC1)C(F)(F)F [Compound 437, N-(3-cyclobutyl-6-(trifluoromethyl)imidazo[1,2-b]pyridazin-2-yl)-3,3,3-trifluoro-2,2-dimethylpropanamide] | 500 to 3000 | +++ (+++ 7-8 animals protected) |  |  | 
8 | CC(C)(CC(=O)Nc1nc2ccc(F)cn2c1C1CCC1)C(F)(F)F [Compound 446, N-(3-cyclobutyl-6-fluoroimidazo[1,2-a]pyridin-2-yl)-4,4,4-trifluoro-3,3-dimethylbutanamide] | < 500 | +++ (+++ 7-8 animals protected) |  |  | 
9 | N-(3-cyclobutyl-6-(trifluoromethyl)imidazo[1,2-b]pyridazin-2-yl)-4,4,4-trifluoro-3,3-dimethylbutanamide [Compound 438] | < 500 | +++ (+++ 7-8 animals protected) |  |  | 

Further lines, with some results ahead:

Row | EC50 ([1]; FLIPR assay (Table 6)) [nM] | Molecule | Rat MES activity ([2]; oral) | metabolism in rats [4] | ED50 ([2]; rat MES dose-response) [mg/kg] | also measured
10 | 500 to 3000 | CC(C)(CC(=O)Nc1nc2ccc(F)cn2c1-c1cc(C(F)(F)F)ccn1)C(F)(F)F [Compound 433, 4,4,4-trifluoro-N-(6-fluoro-3-(4-(trifluoromethyl)pyridin-2-yl)imidazo[1,2-a]pyridin-2-yl)-3,3-dimethylbutanamide] |  | little or no metabolism | 3.9 | 
11 | 500 to 3000 | CC(C)(C(=O)Nc1nc2ccc(C(F)(F)F)nn2c1C1CC1)C(F)(F)F [Compound 435, N-(3-cyclopropyl-6-(trifluoromethyl)imidazo[1,2-b]pyridazin-2-yl)-3,3,3-trifluoro-2,2-dimethylpropanamide] | +++ (+++ 7-8 animals protected) |  |  | 
12 | < 500 | CC(C)(CC(=O)Nc1nc2ccc(C(F)(F)F)nn2c1C1CCC1)C(F)(F)F [Compound 439, N-(3-cyclobutyl-6-(trifluoromethyl)imidazo[1,2-b]pyridazin-2-yl)-4,4,4-trifluoro-3,3-dimethylbutanamide] | +++ (+++ 7-8 animals protected) |  | 0.47 | 
13 | 500 to 3000 | N-(3-cyclopropyl-6-(trifluoromethyl)imidazo[1,2-b]pyridazin-2-yl)-4,4,4-trifluoro-3,3-dimethylbutanamide [Compound 436] |  |  |  | ED50 (mpk) ([2]; rat MES dose-response, oral): 0.7 mpk
